Earlier results on 1 molecule are cited in patent US20260272955A1, “Controlled Release Formulations of Highly Lipophilic Physiologically Active Substances” (ADD Advanced Drug Delivery Technologies Ltd., priority 2019, published 2026).

The conditions of this data set: decimal logarithm of the n-octanol/water partition coefficient; values typically refer to room temperature (25° C.).

On to `C=C(C)[C@@H]1CCC(C)=C[C@H]1c1c(O)cc(CCCCC)cc1O` [Canapure PH, 2-[1R-3-methyl-6R-(1-methylethenyl)-2-cyclohexen-1-yl]-5-pentyl-1,3-benzenediol], for which the “log P” value is reported as “about 6.1”.
